Experimental data reported in patent US9303017B2, “2,5-disubstituted-pyridyl nicotinic ligands, and methods of use thereof” (Georgetown University, priority 2011, dated 2016).
Where two headings read alike, the source gives them in different places.

What was measured:
[1] = biological target: rat α3β4 nAChRs (Rattus norvegicus (Rat), UniProt P04757+P12392); test: 86Rb+ efflux assay (activation and desensitization), α3β4; format: cell-based
Protocol: (§1) In Vitro Effects on nAChR Function. […] Their agonist activities were assessed by measuring stimulated ^86Rb^+ efflux from stably transfected cells, either expressing human α4β2 nAChRs or rat α3β4 receptors.
(§2) Cell Lines and Cell Culture. The cell lines expressing defined rat nAChR subtypes were established previously by stably transfecting HEK 293 cells with rat nAChR subunit genes. The cell line expressing human α4β2 nAChRs, YXα4β2H1, was established recently. These cell lines were maintained in minimum essential medium (MEM) supplemented with 10% fetal bovine serum, 100 units/mL penicillin G, […] and selective antibiotics at 37° C. with 5% CO2 in a humidified incubator. Fetal bovine serum was provided by Gemini Bio-Products (Woodland, Calif.). Tissue culture medium and antibiotics were obtained from Invitrogen Corporation (Carlsbad, Calif.), unless otherwise stated.
(§3) ^86Rb^+ Efflux Assay. Functional properties of compounds at nAChRs expressed in the transfected cells were measured using ^86Rb^+ efflux assays as described previously. In brief, cells expressing human α4β2 or rat α3β4 nAChRs were plated into 24-well plates coated with poly-D-lysine. The plated cells were grown at 37° C. for 18 to 24 hour to reach 85-95% confluence. The cells were then incubated in growth medium (0.5 mL/well) containing ^86Rb^+ (2 μCi/mL) for 4 hour at 37° C. The loading mixture was then aspirated, and the cells were washed four times with 1 mL buffer (15 mM HEPES, 140 mM NaCl, 2 mM KCl, 1 mM MgSO4, 1.8 mM CaCl2, 11 mM Glucose, pH 7.4). One mL of buffer with or without compounds to be tested was then added to each well. After incubation for 2 min, the assay buffer was collected for measurements of ^86Rb^+ released from the cells. Cells were then lysed by adding 1 mL of 100 mM NaOH to each well, and the lysate was collected for determination of the amount of ^86Rb^+ that was in the cells at the end of the efflux assay. Radioactivity of assay samples and lysates was measured by liquid scintillation counting. Total loading (cpm) was calculated as the sum of the assay sample and the lysate of each well. The amount of ^86Rb^+ efflux was expressed as a percentage of ^86Rb^+ loaded. […] For obtaining EC50 and Emax values, stimulation curves were constructed in which 8 different concentrations of a ligand were included in the assay. […] EC50, Emax and IC50(10′) values were determined by nonlinear least-squares regression analyses (GraphPad, San Diego, Calif.).
(§4) The functional properties of the ligands were determined by ^86Rb^+ efflux assays in cells expressing α3β4 and α4β2 nAChR subtypes. The functional activity of each ligand was measured for its agonism, antagonism and desensitization ability. Agonist activity for each of the ligands was tested at eight different concentrations. […] The full concentration-effect curves generated potency (EC50) and efficacy (Emax) of each ligand. […] We tested each ligand for antagonist activity at eight concentrations. The potency (IC50(0′)) of each ligand as an antagonist was derived from the full concentration-effect curves.

[2] = biological target: α4β4 nAChR (Rattus norvegicus (Rat), UniProt P09483+P12392); test: [3H]-epibatidine competition binding, α4β4; settings: Table 1; mean of 3 to 5 measurements
Protocol: (§5) In Vitro Binding Affinities for nAChR Subtypes. […] To determine selectivities of these compounds in binding assays among the three predominant nAChR subtypes, α3β4, α4β2 and α7, the ratios of Ki values (α3β4/α4β2 and α7/α4β2) were determined.
as §2, with “Tissue culture medium and antibiotics were obtained from Invitrogen Corporation (Carlsbad, Calif.), unless otherwise stated.” left out
(§6) Briefly, cultured cells at >80% confluence were removed from their flasks (80 cm^2) with a disposable cell scraper and placed in 10 mL of 50 mM Tris.HCl buffer (pH 7.4, 4° C.). […] The filter-retained radioactivity was measured by liquid scintillation counting. […] Data from competition binding assays were analyzed using Prism 5 (GraphPad Software, San Diego, Calif.).
(§7) Pharmacological Properties. We measured the in vitro binding affinities of the ligands for defined receptor subtypes (α2β2, α2β4, α3β2, α3β4, α4β2, α4β4, α6β2, α6β4, and α7) expressed in stably transfected cell lines. […]

[3] = biological target: α7 nAChR (Rattus norvegicus (Rat), UniProt Q05941); format: binding
Protocol: as §5, §2
(§8) Briefly, cultured cells at >80% confluence were removed from their flasks (80 cm^2) with a disposable cell scraper and placed in 10 mL of 50 mM Tris.HCl buffer (pH 7.4, 4° C.). The cell suspension was centrifuged at 10,000×g for 5 min and the pellet was collected. The cell pellet was then homogenized in 10 mL buffer with a polytron homogenizer and centrifuged at 36,000 g for 10 min at 4° C. The membrane pellet was resuspended in fresh buffer, and aliquots of the membrane preparation were used for binding assays. […] Bound and free ligands were separated by vacuum filtration through Whatman GF/C filters treated with 0.5% polyethylenimine. The filter-retained radioactivity was measured by liquid scintillation counting. Specific binding was defined as the difference between total binding and nonspecific binding. Data from competition binding assays were analyzed using Prism 5 (GraphPad Software, San Diego, Calif.).
(§9) Pharmacological Properties. We measured the in vitro binding affinities of the ligands for defined receptor subtypes (α2β2, α2β4, α3β2, α3β4, α4β2, α4β4, α6β2, α6β4, and α7) expressed in stably transfected cell lines. […] Rat forebrain homogenates were included to allow comparison between the heterologous and native α4β2 and α7 nAChRs. See Table 1 for binding affinity values (Ki) of the ligands at the three major nAChR subtypes (α3β4. α4β2 and α7).

[4] = biological target: α4β2 nAChR (Rattus norvegicus (Rat), UniProt P09483+P12390); test: biochemical; format: binding; settings: for Ki: read-out: Ki α4β2
Protocol: as §5, §2, §8, §9

[5] = biological target: human α4β2 nAChRs (Homo sapiens (Human), UniProt P17787+P43681); test: 86Rb+ efflux assay (activation and desensitization), α4β2; format: cell-based; settings: for IC50: desensitization
Protocol: as §1, §2, §3, §4

[6] = biological target: α2β2 nAChR (Rattus norvegicus (Rat), UniProt P12389+P12390); test: [3H]-epibatidine competition binding, α2β2; settings: Table 1; mean of 3 to 5 measurements
Protocol: as §5
as §2, with “Tissue culture medium and antibiotics were obtained from Invitrogen Corporation (Carlsbad, Calif.), unless otherwise stated.” left out
as §6, §7

[7] = biological target: α3β4 nAChR (Rattus norvegicus (Rat), UniProt P04757+P12392); test: [3H]-epibatidine competition binding, α3β4
Protocol: as §5, §2, §8, §9

[8] = biological target: α3β2 nAChR (Rattus norvegicus (Rat), UniProt P04757+P12390); test: [3H]-epibatidine competition binding, α3β2; settings: Table 1; mean of 3 to 5 measurements
Protocol: as §5
as §2, with “Tissue culture medium and antibiotics were obtained from Invitrogen Corporation (Carlsbad, Calif.), unless otherwise stated.” left out
as §6, §7

[9] = biological target: α2β4 nAChR (Rattus norvegicus (Rat), UniProt P12389+P12392); test: [3H]-epibatidine competition binding, α2β4; settings: Table 1; mean of 3 to 5 measurements
Protocol: as §5
as §2, with “Tissue culture medium and antibiotics were obtained from Invitrogen Corporation (Carlsbad, Calif.), unless otherwise stated.” left out
as §6, §7

[10] = Table 1, mean of 3 to 5 measurements

Cc1ncc(C#CCCCCCl)cc1OC[C@@H]1CCN1 [(S)-21, (S)-3-(azetidin-2-ylmethoxy)-5-(6-chlorohex-1-ynyl)-2-methylpyridine]
IC50 ([1]; read-out: IC50(10′) α3β4): 11 µM | IC50 ([1]; read-out: IC50(10′) α3β4 nAChRs): > 10 µM | Ki [2]: 3.7 µM | Ki [3, 10]: 67 µM | Ki ([3]; Table 3 (Example 4)): 67.2 µM | Ki [4, 10]: 0.0053 µM | Ki ([4]; Table 3 (Example 4)): 0.0047 µM | Ki Ratio α3β4/α4β2 ([4]; selectivity for α4β2 over α3β4): 17,000 | Ki Ratio α7/α4β2 ([4]; selectivity for α4β2 over α7): 13,000 | Emax α4β2 nAChRs ([5]; agonist efficacy normalized to Emax of nicotine, ND = no significant stimulated efflux detected): didn't show detectable agonist activity | IC50 ([5]; 10 min pre-treatment, Table 3 (Example 4), read-out: IC50(10′) α4β2): 0.27 µM | IC50 ([5]; 10 min pre-incubation before 100 μM nicotine, Table 2, read-out: IC50(10′) α4β2 nAChRs): 0.26 µM | Ki [6]: 0.0086 µM | Ki [7, 10]: 92 µM | Ki ([7]; Table 3 (Example 4)): 86 µM | Ki [8]: 0.3 µM | Ki [9]: 29 µM
